Laboratory results: patent US20240270821A1, “GIP/GLP1/GCG TRI-RECEPTOR AGONISTS AND USES THEREOF” (priority 2023, published 2024)
Starred links: 1 amine or outer side, 2 acyl side, 3 side chain; linkers in the order of their positions; H or OH if unused. Non-standard residues stand in square brackets, D forms with d. Residues, ends and D or L forms follow the SMILES beside them. Groups on a side chain read outwards from the residue. *: point of attachment. C18 diacid = O=C(O)CCCCCCCCCCCCCCCCC(=O)*; αMePhe(2-F) = C[C@](N)(Cc1ccccc1F)C(=O)O; γGlu = O=C(O)[C@H](CCC(=O)[*:2])N[*:1]; αMeY = C[C@](N)(Cc1ccc(O)cc1)C(=O)O; 3Pal = N[C@@H](Cc1cccnc1)C(=O)O; 4Pal = N[C@@H](Cc1ccncc1)C(=O)O; αMeL = CC(C)C[C@](C)(N)C(=O)O; αMeS = C[C@](N)(CO)C(=O)O; Orn = NCCC[C@H](N)C(=O)O; AEEA = NCCOCCOCC(=O)O; Aib = CC(C)(N)C(=O)O

Legend:
Type in all cases: cell-based
[1] = molecular target: T1, hGLP-1R (Homo sapiens, UniProt P43220); experiment: Functional cAMP activity in the presence of 1% HSA; conditions: read-out: cAMP Rel EC50, hGLP-1R
[2] = molecular target: T1, hGLP-1R; experiment: Functional cAMP activation in the presence of 0.1% casein (no HSA); conditions: read-out: Relative cAMP EC50, hGLP-1R;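 as to Relative cAMP EC50, hGIPR: intracellular cAMP rise after 30 min at 37 °C read by HTRF against a standard curve, scaled between buffer alone (0%) and top control ligand concentration (100%), four-parameter fit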;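 as to Relative cAMP EC50, hGLP-1R: intracellular cAMP rise after 30 min at 37 °C read by HTRF, normalized between buffer only (0%) and maximal control ligand (100%), four-parameter variable-slope fit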
[3] = molecular target: human GcgR (Homo sapiens, UniProt P47871); experiment: Functional cAMP activity in the presence of 1% HSA; conditions: read-out: cAMP Rel EC50, hGcgR
[4] = molecular target: T2, hGIPR (Homo sapiens, UniProt P48546); experiment: Functional cAMP activity in the presence of 1% HSA; conditions: read-out: cAMP Rel EC50, hGIPR
T2 sequence (P48546 22-466): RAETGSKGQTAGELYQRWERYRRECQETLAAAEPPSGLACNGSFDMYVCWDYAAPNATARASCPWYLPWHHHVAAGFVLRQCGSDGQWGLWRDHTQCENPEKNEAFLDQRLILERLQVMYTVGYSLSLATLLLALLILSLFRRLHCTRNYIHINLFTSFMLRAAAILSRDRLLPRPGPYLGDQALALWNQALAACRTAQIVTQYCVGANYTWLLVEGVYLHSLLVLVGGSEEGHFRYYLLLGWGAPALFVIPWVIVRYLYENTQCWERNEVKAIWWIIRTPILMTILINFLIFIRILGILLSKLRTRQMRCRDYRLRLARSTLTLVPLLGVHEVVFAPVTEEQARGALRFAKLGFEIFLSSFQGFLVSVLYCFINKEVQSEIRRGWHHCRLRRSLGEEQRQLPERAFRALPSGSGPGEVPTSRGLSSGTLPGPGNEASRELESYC

[5] = molecular target: hGcgR (Homo sapiens, UniProt P47871); experiment: Functional cAMP activation in the presence of 0.1% casein (no HSA); conditions: read-out: Relative cAMP EC50, hGcgR;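 also: intracellular cAMP rise after 30 min at 37 °C, read by HTRF against a cAMP standard curve, scaled from buffer only (0%) to maximal control ligand response (100%)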
[6] = molecular target: T2, hGIPR; experiment: as above; conditions: read-out: Relative cAMP EC50, hGIPR

Sequence of human GcgR (P47871 26-477): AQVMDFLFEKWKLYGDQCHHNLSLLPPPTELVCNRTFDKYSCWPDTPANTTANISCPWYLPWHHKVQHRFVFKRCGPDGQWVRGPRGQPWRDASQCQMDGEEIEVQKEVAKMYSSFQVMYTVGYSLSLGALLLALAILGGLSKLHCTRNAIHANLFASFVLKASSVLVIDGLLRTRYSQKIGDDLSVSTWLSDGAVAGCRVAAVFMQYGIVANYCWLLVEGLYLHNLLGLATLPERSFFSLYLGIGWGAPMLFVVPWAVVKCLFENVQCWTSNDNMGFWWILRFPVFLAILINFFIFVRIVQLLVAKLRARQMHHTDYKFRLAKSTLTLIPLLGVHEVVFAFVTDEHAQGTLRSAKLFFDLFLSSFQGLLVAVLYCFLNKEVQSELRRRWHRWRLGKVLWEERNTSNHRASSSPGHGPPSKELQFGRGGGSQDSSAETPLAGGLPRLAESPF
Sequence of hGcgR (P47871 26-477): as above
T1 sequence (P43220 24-463): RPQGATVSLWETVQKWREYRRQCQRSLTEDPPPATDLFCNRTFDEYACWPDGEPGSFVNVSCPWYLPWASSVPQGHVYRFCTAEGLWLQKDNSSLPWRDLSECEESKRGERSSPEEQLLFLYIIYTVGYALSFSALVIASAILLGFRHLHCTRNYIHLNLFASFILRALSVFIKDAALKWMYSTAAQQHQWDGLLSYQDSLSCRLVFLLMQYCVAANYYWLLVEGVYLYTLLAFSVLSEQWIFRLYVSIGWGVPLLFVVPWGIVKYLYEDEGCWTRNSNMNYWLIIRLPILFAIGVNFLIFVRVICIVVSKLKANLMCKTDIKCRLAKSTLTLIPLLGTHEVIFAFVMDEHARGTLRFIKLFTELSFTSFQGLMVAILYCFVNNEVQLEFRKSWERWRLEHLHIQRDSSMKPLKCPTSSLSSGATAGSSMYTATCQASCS

Question: How did the EC50 [1] turn out when CC[C@H](C)[C@H](NC(=O)[C@H](CC(C)C)NC(=O)[C@](C)(Cc1ccc(O)cc1)NC(=O)[C@@H](CCC(=O)O)NC(=O)[C@@H](NC(=O)[C@H](Cc1ccccc1)NC(=O)[C@H](CCCN)NC(=O)C(C)(C)NC(=O)[C@H](CCC(N)=O)NC(=O)[C@H](C)NC(=O)[C@H](CCCCNC(=O)COCCOCCNC(=O)CC[C@H](NC(=O)CCCCCCCCCCCCCCCCC(=O)O)C(=O)O)NC(=O)[C@H](CCCN)NC(=O)[C@H](CC(=O)O)NC(=O)[C@H](CC(C)C)NC(=O)[C@](C)(CC(C)C)NC(=O)[C@@H](NC(=O)[C@](C)(CO)NC(=O)[C@H](Cc1ccncc1)NC(=O)[C@H](CC(=O)O)NC(=O)[C@H](CO)NC(=O)[C@@H](NC(=O)[C@](C)(Cc1ccccc1F)NC(=O)[C@@H](NC(=O)CNC(=O)[C@H](CCC(N)=O)NC(=O)C(C)(C)NC(=O)[C@@H](N)Cc1ccc(O)cc1)[C@@H](C)O)[C@@H](C)O)[C@@H](C)CC)[C@@H](C)CC)C(=O)N[C@@H](CCC(=O)O)C(=O)NCC(=O)NCC(=O)N1CCC[C@H]1C(=O)N[C@@H](CO)C(=O)N[C@@H](CO)C(=O)NCC(=O)N[C@@H](CCC(=O)O)C(=O)N1CCC[C@H]1C(=O)N[C@@H](CCC(=O)O)C(=O)N1CCC[C@H]1C(=O)N[C@@H](CCC(=O)O)C(N)=O [Example 461] (H-Y[Aib]QGT[αMePhe(2-F)]TSD[4Pal][αMeS]I[αMeL]LD[Orn]K([AEEA-γGlu-C18 diacid])AQ[Aib][Orn]FI[dE][αMeY]LIEGGPSSGEPEPE-NH2) was run?
Answer: The EC50 was 12 nM.

Question: And the EC50 [2]?
Answer: Its EC50 is 0.194 nM.

Question: What about the EC50 [3] of the same compound?
Answer: The EC50 was 131 nM.

Question: What about the EC50 [4] of the same compound?
Answer: Its EC50 is 2.51 nM.

Question: And the EC50 [5]?
Answer: The EC50 was 1.53 nM.

Question: And the EC50 [6]?
Answer: The EC50 was 0.0171 nM.

Question: CC[C@H](C)[C@H](NC(=O)[C@H](Cc1ccccc1)NC(=O)[C@H](C)NC(=O)C(C)(C)NC(=O)[C@H](CCC(N)=O)NC(=O)[C@H](C)NC(=O)[C@H](CCCCNC(=O)COCCOCCNC(=O)CC[C@H](NC(=O)CCCCCCCCCCCCCCCCC(=O)O)C(=O)O)NC(=O)[C@H](CCCCN)NC(=O)[C@H](CC(=O)O)NC(=O)[C@H](CC(C)C)NC(=O)[C@H](CC(C)C)NC(=O)[C@@H](NC(=O)[C@](C)(CO)NC(=O)[C@H](Cc1ccncc1)NC(=O)[C@H](CC(=O)O)NC(=O)[C@H](CO)NC(=O)[C@@H](NC(=O)[C@](C)(Cc1ccccc1F)NC(=O)[C@@H](NC(=O)CNC(=O)[C@H](CCC(N)=O)NC(=O)C(C)(C)NC(=O)[C@@H](N)Cc1ccc(O)cc1)[C@@H](C)O)[C@@H](C)O)[C@@H](C)CC)C(=O)N[C@@H](CCC(=O)O)C(=O)N[C@@H](Cc1ccc(O)cc1)C(=O)N[C@@H](CC(C)C)C(=O)N[C@@H](CCC(=O)O)C(=O)N[C@@H](CCC(=O)O)C(=O)NCC(=O)NCC(=O)N1CCC[C@H]1C(=O)N[C@@H](CO)C(=O)N[C@@H](CO)C(=O)NCC(=O)N[C@@H](C)C(=O)N1CCC[C@H]1C(=O)N1CCC[C@H]1C(=O)N1CCC[C@H]1C(=O)N[C@@H](CCC(=O)O)C(N)=O [Example 464] (H-Y[Aib]QGT[αMePhe(2-F)]TSD[4Pal][αMeS]ILLDKK([AEEA-γGlu-C18 diacid])AQ[Aib]AFIEYLEEGGPSSGAPPPE-NH2) was tested. Which EC50 [1] did it give?
Answer: Its EC50 is 45.5 nM.

Question: What about the EC50 [2] of the same compound?
Answer: Its EC50 is 0.466 nM.

Question: What about the EC50 [3] of the same compound?
Answer: Its EC50 is 194 nM.

Question: And the EC50 [4]?
Answer: Its EC50 is 19.9 nM.

Question: What about the EC50 [5] of the same compound?
Answer: Its EC50 is 1.25 nM.

Question: What about the EC50 [6] of the same compound?
Answer: Its EC50 is 0.072 nM.

Question: Which EC50 [1] does the source give for CC[C@H](C)[C@H](NC(=O)[C@H](Cc1ccccc1)NC(=O)[C@H](C)NC(=O)C(C)(C)NC(=O)[C@H](CCC(N)=O)NC(=O)[C@H](C)NC(=O)[C@H](CCCCNC(=O)COCCOCCNC(=O)CC[C@H](NC(=O)CCCCCCCCCCCCCCCCC(=O)O)C(=O)O)NC(=O)[C@H](CCCCN)NC(=O)[C@H](CC(=O)O)NC(=O)[C@H](CC(C)C)NC(=O)[C@H](CC(C)C)NC(=O)[C@@H](NC(=O)[C@](C)(CO)NC(=O)[C@H](Cc1cccnc1)NC(=O)[C@H](CC(=O)O)NC(=O)[C@H](CO)NC(=O)[C@@H](NC(=O)[C@](C)(Cc1ccccc1F)NC(=O)[C@@H](NC(=O)CNC(=O)[C@H](CCC(N)=O)NC(=O)C(C)(C)NC(=O)[C@@H](N)Cc1ccc(O)cc1)[C@@H](C)O)[C@@H](C)O)[C@@H](C)CC)C(=O)N[C@@H](CCC(=O)O)C(=O)N[C@@H](Cc1ccc(O)cc1)C(=O)N[C@@H](CC(C)C)C(=O)N[C@@H](CCC(=O)O)C(=O)N[C@@H](CCC(=O)O)C(=O)NCC(=O)NCC(=O)N1CCC[C@H]1C(=O)N[C@@H](CO)C(=O)N[C@@H](CO)C(=O)NCC(=O)N[C@@H](C)C(=O)N1CCC[C@H]1C(=O)N1CCC[C@H]1C(=O)N1CCC[C@H]1C(=O)N[C@@H](CCC(=O)O)C(N)=O [Example 465] (H-Y[Aib]QGT[αMePhe(2-F)]TSD[3Pal][αMeS]ILLDKK([AEEA-γGlu-C18 diacid])AQ[Aib]AFIEYLEEGGPSSGAPPPE-NH2) here?
Answer: Its EC50 is 56.3 nM.

Question: And the EC50 [2]?
Answer: The EC50 was 0.575 nM.

Question: What about the EC50 [3] of the same compound?
Answer: The EC50 was 233 nM.

Question: And the EC50 [4]?
Answer: The EC50 was 44.6 nM.

Question: And the EC50 [5]?
Answer: The EC50 was 1.5 nM.

Question: What about the EC50 [6] of the same compound?
Answer: The EC50 was 0.148 nM.

Question: Which EC50 [1] does the source give for CC[C@H](C)[C@H](NC(=O)[C@H](Cc1ccccc1)NC(=O)[C@H](C)NC(=O)C(C)(C)NC(=O)[C@H](CCC(N)=O)NC(=O)[C@H](C)NC(=O)[C@H](CCCCNC(=O)COCCOCCNC(=O)CC[C@H](NC(=O)CCCCCCCCCCCCCCCCC(=O)O)C(=O)O)NC(=O)[C@H](CCCN)NC(=O)[C@H](CC(=O)O)NC(=O)[C@H](CC(C)C)NC(=O)[C@](C)(CC(C)C)NC(=O)[C@@H](NC(=O)[C@](C)(CO)NC(=O)[C@H](Cc1ccncc1)NC(=O)[C@H](CC(=O)O)NC(=O)[C@H](CO)NC(=O)[C@@H](NC(=O)[C@](C)(Cc1ccccc1F)NC(=O)[C@@H](NC(=O)CNC(=O)[C@H](CCC(N)=O)NC(=O)C(C)(C)NC(=O)[C@@H](N)Cc1c[nH]cn1)[C@@H](C)O)[C@@H](C)O)[C@@H](C)CC)C(=O)N[C@H](CCC(=O)O)C(=O)N[C@@H](Cc1ccc(O)cc1)C(=O)N[C@@H](CC(C)C)C(=O)N[C@@H](CC(C)C)C(=O)N[C@@H](CCC(=O)O)C(=O)NCC(=O)NCC(=O)N1CCC[C@H]1C(=O)N[C@@H](CO)C(=O)N[C@@H](CO)C(=O)NCC(=O)N[C@@H](CCC(=O)O)C(=O)N1CCC[C@H]1C(=O)N1CCC[C@H]1C(=O)N1CCC[C@H]1C(=O)N[C@@H](CCC(=O)O)C(N)=O [Example 466] (H-H[Aib]QGT[αMePhe(2-F)]TSD[4Pal][αMeS]I[αMeL]LD[Orn]K([AEEA-γGlu-C18 diacid])AQ[Aib]AFI[dE]YLLEGGPSSGEPPPE-NH2; N-terminus assumed) here?
Answer: Its EC50 is 13.3 nM.

Question: And the EC50 [2]?
Answer: The EC50 was 0.207 nM.

Question: What about the EC50 [3] of the same compound?
Answer: Its EC50 is 348 nM.

Question: What about the EC50 [4] of the same compound?
Answer: The EC50 was 5.65 nM.

Question: What about the EC50 [5] of the same compound?
Answer: The EC50 was 5.84 nM.

Question: And the EC50 [6]?
Answer: Its EC50 is 0.0466 nM.

Question: Which results are given for CC[C@H](C)[C@H](NC(=O)[C@H](Cc1ccccc1)NC(=O)[C@H](C)NC(=O)C(C)(C)NC(=O)[C@H](CCC(N)=O)NC(=O)[C@H](C)NC(=O)[C@H](CCCCNC(=O)COCCOCCNC(=O)CC[C@H](NC(=O)CCCCCCCCCCCCCCCCC(=O)O)C(=O)O)NC(=O)[C@H](CCCCN)NC(=O)[C@H](CC(=O)O)NC(=O)[C@H](CC(C)C)NC(=O)[C@H](CC(C)C)NC(=O)[C@H](CCC(=O)O)NC(=O)[C@](C)(CO)NC(=O)[C@H](Cc1ccc(O)cc1)NC(=O)[C@H](CC(=O)O)NC(=O)[C@H](CO)NC(=O)[C@@H](NC(=O)[C@](C)(Cc1ccccc1F)NC(=O)[C@@H](NC(=O)CNC(=O)[C@H](CCC(N)=O)NC(=O)C(C)(C)NC(=O)[C@@H](N)Cc1ccc(O)cc1)[C@@H](C)O)[C@@H](C)O)C(=O)N[C@@H](CCC(=O)O)C(=O)N[C@@H](Cc1ccc(O)cc1)C(=O)N[C@@H](CC(C)C)C(=O)N[C@@H](CCC(=O)O)C(=O)N[C@@H](CCC(=O)O)C(=O)NCC(=O)NCC(=O)N1CCC[C@H]1C(=O)N[C@@H](CO)C(=O)N[C@@H](CO)C(=O)NCC(=O)N[C@@H](C)C(=O)N1CCC[C@H]1C(=O)N1CCC[C@H]1C(=O)N1CCC[C@H]1C(=O)N[C@@H](CCC(=O)O)C(N)=O [Example 467] (H-Y[Aib]QGT[αMePhe(2-F)]TSDY[αMeS]ELLDKK([AEEA-γGlu-C18 diacid])AQ[Aib]AFIEYLEEGGPSSGAPPPE-NH2)?
Answer: EC50 [1]: 36.4 nM; EC50 [2]: 0.358 nM; EC50 [3]: 850 nM; EC50 [4]: 10.7 nM; EC50 [5]: 9.34 nM; EC50 [6]: 0.0855 nM
